This note sets out measurements from article PMC4503722, “Novel Phenotypic Outcomes Identified for a Public Collection of Approved Drugs from a Publicly Accessible Panel of Assays” (PLoS ONE, 2015).

In experiment [1] the test system is endothelial tube formation in co-cultures of ECFCs and ADSCs treated with VEGF. Put plainly: cells. In kind it is cell-based, human.
The subject of the next experiment is DLD-1. Put plainly: cells. In kind it is cell-based. To be noted: for Basal_Viability ATP DLD-1 IC50/EC50: assay number 23.
A further experiment concerns SW480. Put plainly: cells. In kind it is cell-based. The note with it: for Basal_Viability ATP SW480 IC50/EC50: assay number 24.
A further experiment relates to HCT116. Put plainly: cells. Type of experiment: cell-based. The note with it: for Basal_Viability ATP HCT116 IC50/EC50: assay number 25, basal.
The test system of experiment [2] is HCT116 cells treated with a GSK3β inhibitor. The experiment can be described thus: cells. In kind it is cell-based. The note with it: for GSK3b inh pretreated_Viability ATP HCT116 IC50/EC50: assay number 26, GSK3b inhibitor pretreated.
The next experiment relates to Colo320. The experiment can be described thus: cells. Type of experiment: cell-based. To be noted: for Basal_Viability ATP Colo 320 IC50/EC50: assay number 27.
The subject of the next experiment is HT-29. Put plainly: cells. Type of experiment: cell-based. The note with it: for Basal_Viability ATP HT-29 IC50/EC50: assay number 28.
The subject of the next experiment is RKO. The experiment can be described thus: cells. Type of experiment: cell-based. The note with it: for Basal_Viability ATP RKO IC50/EC50: assay number 29.
Another experiment deals with SNU-C1. Put plainly: cells. To be noted: for Basal_Viability ATP SNU-C1 IC50/EC50: assay number 30. In kind it is cell-based.
The subject of experiment [3] is ECFC/ADSC co-culture cell nuclei number.

As for `CCCCN1CCCC1C(=O)Nc1c(C)cc(C)cc1C` (stereo not drawn) [NCGC00160363-03], in [1], the “VEGF_ADSC\ECFC Angio CD31 TubeArea IC50/EC50” value is on record as greater than 10 µM. The “Basal_Viability ATP DLD-1 IC50/EC50” value with DLD-1 (basal) is on record as greater than 20 µM. In addition, the “Basal_Viability ATP SW480 IC50/EC50” value in the experiment with SW480 (basal) is reported as greater than 20 µM. Also, the “Basal_Viability ATP HCT116 IC50/EC50” value in the experiment on HCT116 is recorded as greater than 20 µM. Besides, the “GSK3b inh pretreated_Viability ATP HCT116 IC50/EC50” value in experiment [2] was greater than 20 µM. Further, the “Basal_Viability ATP Colo 320 IC50/EC50” value in the experiment on Colo320 (basal) is listed as greater than 20 µM. Moreover, in the experiment with HT-29 (basal), the “Basal_Viability ATP HT-29 IC50/EC50” value is recorded as greater than 20 µM. The “Basal_Viability ATP RKO IC50/EC50” value in the experiment on RKO (basal) is recorded as greater than 20 µM. Further, the “Basal_Viability ATP SNU-C1 IC50/EC50” value with SNU-C1 (basal) is given as greater than 20 µM. In experiment [3], the “VEGF_ADSC\ECFC Angio Hoechst NucArea IC50/EC50” value is greater than 10 µM.

With `O=C(Nc1ccc(Br)cc1)c1cc(Br)c(Br)s1` [NCGC00160448-02], in experiment [1], the “VEGF_ADSC\ECFC Angio CD31 TubeArea IC50/EC50” value was greater than 10 µM. Further, the “Basal_Viability ATP DLD-1 IC50/EC50” value in the experiment with DLD-1 (basal) was found to be 0.3353 µM. The “Basal_Viability ATP SW480 IC50/EC50” value with SW480 (basal) was found to be 0.1229 µM. Further, in the experiment on HCT116, the “Basal_Viability ATP HCT116 IC50/EC50” value is 0.5412 µM. In addition, in experiment [2], the “GSK3b inh pretreated_Viability ATP HCT116 IC50/EC50” value turned out to be 0.3423 µM. Besides, the “Basal_Viability ATP Colo 320 IC50/EC50” value with Colo320 (basal) was determined as 0.018 µM. Also, the “Basal_Viability ATP HT-29 IC50/EC50” value with HT-29 (basal) stood at 0.5199 µM. For the same compound, the “Basal_Viability ATP RKO IC50/EC50” value in the experiment with RKO (basal) is 0.4312 µM. Moreover, the “Basal_Viability ATP SNU-C1 IC50/EC50” value in the experiment on SNU-C1 (basal) is on record as 1.0991 µM. For the same compound, in experiment [3], the “VEGF_ADSC\ECFC Angio Hoechst NucArea IC50/EC50” value was greater than 10 µM.

Regarding `CCC1Nc2cc(Cl)c(S(N)(=O)=O)cc2S(=O)(=O)N1` (stereo not drawn) [NCGC00160540-03], the “VEGF_ADSC\ECFC Angio CD31 TubeArea IC50/EC50” value in experiment [1] was greater than 10 µM. Moreover, the “Basal_Viability ATP DLD-1 IC50/EC50” value in the experiment on DLD-1 (basal) is reported as greater than 20 µM. Besides, the “Basal_Viability ATP SW480 IC50/EC50” value in the experiment with SW480 (basal) is on record as greater than 6.6667 µM. For the same compound, the “Basal_Viability ATP HCT116 IC50/EC50” value with HCT116 is reported as greater than 20 µM. For the same compound, in experiment [2], the “GSK3b inh pretreated_Viability ATP HCT116 IC50/EC50” value is greater than 20 µM. Besides, the “Basal_Viability ATP Colo 320 IC50/EC50” value in the experiment with Colo320 (basal) is greater than 20 µM. In addition, in the experiment on HT-29 (basal), the “Basal_Viability ATP HT-29 IC50/EC50” value is recorded as greater than 20 µM. In addition, in the experiment on RKO (basal), the “Basal_Viability ATP RKO IC50/EC50” value was greater than 20 µM. The “Basal_Viability ATP SNU-C1 IC50/EC50” value in the experiment with SNU-C1 (basal) is on record as greater than 20 µM. Besides, the “VEGF_ADSC\ECFC Angio Hoechst NucArea IC50/EC50” value in experiment [3] is given as greater than 10 µM.

With `O=C1c2ccccc2C(=O)C1C(=O)C(c1ccccc1)c1ccccc1` [NCGC00160553-03], the “IC50/EC50, VEGF_ADSC\ECFC Angio CD31 TubeArea (assay number 2)” value in experiment [1] is given as greater than 10 µM. In addition, in the experiment with DLD-1, the “IC50/EC50, Basal_Viability ATP DLD-1 (assay number 23)” value came to 1.326 µM. In addition, in the experiment on SW480, the “IC50/EC50, Basal_Viability ATP SW480 (assay number 24)” value was 0.5361 µM. For the same compound, in the experiment on HCT116, the “IC50/EC50, Basal_Viability ATP HCT116 (assay number 25)” value was 0.5307 µM. Also, the “IC50/EC50, GSK3b inh pretreated_Viability ATP HCT116 (assay number 26)” value in experiment [2] is 0.5674 µM. Further, the “IC50/EC50, Basal_Viability ATP Colo 320 (assay number 27)” value with Colo320 stood at 0.6211 µM. Besides, in the experiment on HT-29, the “IC50/EC50, Basal_Viability ATP HT-29 (assay number 28)” value is listed as 4.4845 µM. Also, the “IC50/EC50, Basal_Viability ATP RKO (assay number 29)” value with RKO is on record as 1.5932 µM. Besides, the “IC50/EC50, Basal_Viability ATP SNU-C1 (assay number 30)” value in the experiment with SNU-C1 is listed as 4.0068 µM. Besides, the “IC50/EC50, VEGF_ADSC\ECFC Angio Hoechst NucArea (assay number 3)” value in [3] is on record as greater than 10 µM.

Take `CCCCCCOC(=O)c1cccnc1` [NCGC00160591-02]: the “VEGF_ADSC\ECFC Angio CD31 TubeArea IC50/EC50” value in [1] was greater than 10 µM. Further, in the experiment with DLD-1 (concentration response), the “Basal_Viability ATP DLD-1 IC50/EC50” value is greater than 20 µM. Further, the “Basal_Viability ATP SW480 IC50/EC50” value in the experiment with SW480 (concentration response) was greater than 20 µM. The “Basal_Viability ATP HCT116 IC50/EC50” value with HCT116 (concentration response) is greater than 20 µM. Moreover, in experiment [2] (concentration response), the “GSK3b inh pretreated_Viability ATP HCT116 IC50/EC50” value is reported as greater than 20 µM. In addition, in the experiment on Colo320 (concentration response), the “Basal_Viability ATP Colo 320 IC50/EC50” value is reported as greater than 20 µM. In the experiment on HT-29 (concentration response), the “Basal_Viability ATP HT-29 IC50/EC50” value is reported as greater than 20 µM. The “Basal_Viability ATP RKO IC50/EC50” value with RKO (concentration response) is greater than 20 µM. In addition, the “Basal_Viability ATP SNU-C1 IC50/EC50” value in the experiment on SNU-C1 (concentration response) is reported as greater than 20 µM. For the same compound, the “VEGF_ADSC\ECFC Angio Hoechst NucArea IC50/EC50” value in experiment [3] was greater than 10 µM.

Regarding `CCC(C(=O)OCCOCCN(CC)CC)c1ccccc1.O=C(O)CC(O)(CC(=O)O)C(=O)O` (stereo not drawn) [NCGC00160645-02], the “VEGF_ADSC\ECFC Angio CD31 TubeArea IC50/EC50” value in experiment [1] was greater than 10 µM. Moreover, the “Basal_Viability ATP DLD-1 IC50/EC50” value in the experiment on DLD-1 (basal) is listed as greater than 20 µM. Besides, the “Basal_Viability ATP SW480 IC50/EC50” value in the experiment on SW480 (basal) is reported as greater than 20 µM. Moreover, the “Basal_Viability ATP HCT116 IC50/EC50” value in the experiment on HCT116 is given as greater than 20 µM. Also, the “GSK3b inh pretreated_Viability ATP HCT116 IC50/EC50” value in experiment [2] is reported as greater than 20 µM. Also, in the experiment on Colo320 (basal), the “Basal_Viability ATP Colo 320 IC50/EC50” value is recorded as greater than 20 µM. In the experiment with HT-29 (basal), the “Basal_Viability ATP HT-29 IC50/EC50” value was greater than 20 µM. For the same compound, the “Basal_Viability ATP RKO IC50/EC50” value in the experiment on RKO (basal) is given as greater than 20 µM. For the same compound, the “Basal_Viability ATP SNU-C1 IC50/EC50” value with SNU-C1 (basal) is listed as greater than 20 µM. Moreover, the “VEGF_ADSC\ECFC Angio Hoechst NucArea IC50/EC50” value in experiment [3] is reported as greater than 10 µM.
